Assay: Plasma concentrations of MIV-711 in ACLT rabbits (LC-MS/MS)
Assay type: in vivo
Conditions: rabbit plasma
Method: Starting 1 week after sham operation or ACLT, animals were dosed daily for 7 weeks by oral gavage with either MIV-711 (synthesized by Medivir and given as a suspension in 1% Methocel A4C in water) or vehicle (1% Methocel A4C in water) at a dose volume of 4 mL/kg. The four treatment groups (n = 7 in each group) were: (1) sham + vehicle; (2) ACLT + vehicle; (3) ACLT + MIV-711, 30 µmol/kg (low dose) and (4) ACLT + MIV-711, 100 µmol/kg (high dose).
Twelve blood samples of 1 mL each were collected from each animal for determination of MIV-711 concentrations in a staggered manner to cover as many time points as possible. The blood samples were collected on Day 1, Day 10 and during Week 4 and Week 7. The samples were collected in EDTA coated tubes and kept on ice. The plasma was separated by centrifugation (2000g for 3–5 min at 4 °C) and then frozen and kept at − 70 °C until analysis.
To measure MIV-711 concentrations, 10–50 µL of plasma or synovial fluid was mixed with 30–150 µL of acetonitrile, samples were centrifuged (10 min, 20,000g, 7 °C) and 5 µL of the supernatant was injected onto the LC–MS/MS system. The lower limit of quantification (LLOQ) was 1 nmol/L.

[1] = single oral administration 30 µmol/kg
[2] = single oral administration 100 µmol/kg

In the case of `C#C[C@@H]1CN(C(=O)[C@H](CC(C)C)NC(=O)c2ccc(-c3nc(N4CCN(C)CC4)sc3F)cc2)[C@@H]2C(=O)CO[C@H]12` [MIV-711], the “AUC0–24 h” value [1] is reported as 0.78 µM·h, the Cmax [1] is reported as 250 nM and the “AUC0–24 h” value [2] is reported as 7.0 µM·h. The Cmax [2] was 1800 nM.
